Test results published in PubChem BioAssay AID2060605 (Molecular Pharmacology Branch, DTP, NCI, 2025).
Several values for one entry are separate records, joined by “and”; a condition that tells them apart may be missing. Identical values can stand only once.

Test system: 947758-054-R-J2-PDC spheroid growth, percent test/control
Assay: Anticancer human tumor 947758-054-R-J2-PDC patient-derived colon adenocarcinoma cell line growth inhibition [CLK]
Details: spheroids with HUVEC and MSC; for viability, T/C: stronger effect = lower value; active means viability on the fitted dose curve at most 10% of control; inactive means the rest
Summary of the method: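 Patient-derived tumor cells grown as complex spheroids with HUVEC endothelial cells and mesenchymal stem cells, treated with drug combinations. Concentrations descend in half-log steps from near clinical Cmax, or from 10 microM if Cmax unknown.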

[1] = curve of first compound, second compound 0.0316 µM
[2] = curve of first compound, second compound 0.1 µM
[3] = curve of first compound, second compound 0.316 µM
[4] = curve of first compound, second compound 1 µM
[5] = curve of first compound, second compound 3.16 µM
[6] = curve of first compound, second compound 10 µM
[7] = second compound 0.0316 µM, first compound 0.0316 µM
[8] = second compound 0.0316 µM, first compound 0.1 µM
[9] = second compound 0.0316 µM, first compound 0.316 µM
[10] = second compound 0.0316 µM, first compound 1 µM
[11] = second compound 0.0316 µM, first compound 3.16 µM
[12] = second compound 0.0316 µM, first compound 10 µM
[13] = second compound 0.1 µM, first compound 0.0316 µM
[14] = second compound 0.1 µM, first compound 0.1 µM
[15] = second compound 0.1 µM, first compound 0.316 µM
[16] = second compound 0.1 µM, first compound 1 µM
[17] = second compound 0.1 µM, first compound 3.16 µM
[18] = second compound 0.1 µM, first compound 10 µM
[19] = second compound 0.316 µM, first compound 0.0316 µM
[20] = second compound 0.316 µM, first compound 0.1 µM
[21] = second compound 0.316 µM, first compound 0.316 µM
[22] = second compound 0.316 µM, first compound 1 µM
[23] = second compound 0.316 µM, first compound 3.16 µM
[24] = second compound 0.316 µM, first compound 10 µM
[25] = second compound 1 µM, first compound 0.0316 µM
[26] = second compound 1 µM, first compound 0.1 µM
[27] = second compound 1 µM, first compound 0.316 µM
[28] = second compound 1 µM, first compound 1 µM
[29] = second compound 1 µM, first compound 3.16 µM
[30] = second compound 1 µM, first compound 10 µM
[31] = second compound 3.16 µM, first compound 0.0316 µM
[32] = second compound 3.16 µM, first compound 0.1 µM
[33] = second compound 3.16 µM, first compound 0.316 µM
[34] = second compound 3.16 µM, first compound 1 µM
[35] = second compound 3.16 µM, first compound 3.16 µM
[36] = second compound 3.16 µM, first compound 10 µM
[37] = second compound 10 µM, first compound 0.0316 µM
[38] = second compound 10 µM, first compound 0.1 µM
[39] = second compound 10 µM, first compound 0.316 µM
[40] = second compound 10 µM, first compound 1 µM
[41] = second compound 10 µM, first compound 3.16 µM
[42] = second compound 10 µM, first compound 10 µM
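Further: spheroids exposed to compounds for one week before readout.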
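Wherever viability, T/C is given: 100% = DMSO vehicle control wells.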

CC(C)CC(NC(=O)C(Cc1ccccc1)NC(=O)c1cnccn1)B(O)O (stereo not given)
active: viability, T/C (compound 0.003 µM) 2.43% and 0.8% | viability, T/C (compound 0.00949 µM) 0.17% and 0.23% | viability, T/C (compound 0.03 µM) 0.24% and 0.3% | viability, T/C (compound 0.0949 µM) 0.19% and 0.27% | viability, T/C (compound 0.3 µM) 0.24% and 0.28%
0.0016 µM and 0.00154 µM: IC50 (curve of compound)
inactive: viability, T/C (compound 0.000949 µM) 89.3% and 86%

O=C(c1cc(Cc2n[nH]c(=O)c3ccccc23)ccc1F)N1CCN(C(=O)C2CC2)CC1
> 10 µM: IC50 (curve of compound)
inactive: viability, T/C (compound 0.0316 µM) 94.1% and 101% | viability, T/C (compound 0.1 µM) 93.6% and 90% | viability, T/C (compound 0.316 µM) 106% and 101% | viability, T/C (compound 1 µM) 107% | viability, T/C (compound 3.16 µM) 131% and 101% | viability, T/C (compound 10 µM) 177% and 120%

CC1(C)CCC(CN2CCN(c3ccc(C(=O)NS(=O)(=O)c4ccc(NCC5CCOCC5)c([N+](=O)[O-])c4)c(Oc4cnc5[nH]ccc5c4)c3)CC2)=C(c2ccc(Cl)cc2)C1
11.8% and 7.38%: viability, T/C (compound 10 µM)
inactive: viability, T/C (compound 0.0316 µM) 97.8% and 118% | viability, T/C (compound 0.1 µM) 77.6% and 97.2% | viability, T/C (compound 0.316 µM) 97.4% and 110% | viability, T/C (compound 1 µM) 94.5% and 86.3% | viability, T/C (compound 3.16 µM) 79.5% and 87.2%
5.23 µM and 5.17 µM: IC50 (curve of compound)

COc1cccc2c1C(=O)c1c(O)c3c(c(O)c1C2=O)CC(O)(C(=O)CO)CC3OC1CC(N)C(O)C(C)O1 (stereo not given) + CNC(=O)c1ccc(Nc2nc(OC3CCCC3)c3c(-c4ccc5nc(C)oc5c4)c[nH]c3n2)c(OC)c1
< 0.0316 µM: IC50 [3] | IC50 [4] | IC50 [5] | IC50 [6]
inactive: viability, T/C [7] 59% | viability, T/C [8] 41.9% | viability, T/C [9] 32.6% | viability, T/C [10] 8.58% | viability, T/C [13] 52.9% | viability, T/C [14] 42.3% | viability, T/C [15] 23.6% | viability, T/C [19] 45.4% | viability, T/C [20] 32.1% | viability, T/C [21] 12.9% | viability, T/C [25] 28.7% | viability, T/C [26] 22.5% | viability, T/C [31] 28.1% | viability, T/C [32] 15.5% | viability, T/C [37] 23.3% | viability, T/C [38] 20.3%
active: viability, T/C [11] 0.41% | viability, T/C [12] 6.15% | viability, T/C [16] 4.38% | viability, T/C [17] 0.29% | viability, T/C [18] 4.57% | viability, T/C [22] 2.1% | viability, T/C [23] 0.25% | viability, T/C [24] 5.74% | viability, T/C [27] 5.4% | viability, T/C [28] 0.36% | viability, T/C [29] 0.24% | viability, T/C [30] 6.92% | viability, T/C [33] 5.36% | viability, T/C [34] 0.27% | viability, T/C [35] 0.27% | viability, T/C [36] 9.95% | viability, T/C [39] 4.23% | viability, T/C [40] 0.21% | viability, T/C [41] 1% | viability, T/C [42] 12.1%
0.0423 µM: IC50 [2]
0.0682 µM: IC50 [1]

O=c1[nH]cc(F)c(=O)[nH]1
1.29 µM and 1.43 µM: IC50 (curve of compound)
inactive: viability, T/C (compound 0.0316 µM) 91.8% and 91.2% | viability, T/C (compound 0.1 µM) 103% and 99% | viability, T/C (compound 0.316 µM) 129% and 86.8% | viability, T/C (compound 1 µM) 54.9% and 55.9% | viability, T/C (compound 3.16 µM) 34.4% and 37.1% | viability, T/C (compound 10 µM) 31.2% and 36.5%

CNC(=O)c1ccc(Nc2nc(OC3CCCC3)c3c(-c4ccc5nc(C)oc5c4)c[nH]c3n2)c(OC)c1
inactive: viability, T/C (compound 0.0316 µM) 62.2% [middle of 12 runs] | viability, T/C (compound 1 µM) 56.2% [middle of 12 runs] | viability, T/C (compound 3.16 µM) 45.1% [middle of 12 runs] | viability, T/C (compound 10 µM) 36.8% [middle of 12 runs]

COC1C=CCC(C)C(C)S(=O)(=O)NC(=O)c2ccc3c(c2)N(CC2CCC21)CC1(CCCc2cc(Cl)ccc21)CO3 (stereo not given) + CNC(=O)c1ccc(Nc2nc(OC3CCCC3)c3c(-c4ccc5nc(C)oc5c4)c[nH]c3n2)c(OC)c1
7.66 µM: IC50 [1]
< 0.0316 µM: IC50 [3] | IC50 [4] | IC50 [5] | IC50 [6]
inactive: viability, T/C [7] 75.6% | viability, T/C [8] 83.8% | viability, T/C [9] 90.3% | viability, T/C [10] 116% | viability, T/C [11] 95.3% | viability, T/C [12] 37.3% | viability, T/C [13] 73.4% | viability, T/C [14] 71.2% | viability, T/C [15] 55.5% | viability, T/C [16] 65.1% | viability, T/C [17] 72.1% | viability, T/C [18] 28.5% | viability, T/C [19] 61.8% | viability, T/C [20] 53.6% | viability, T/C [21] 37.2% | viability, T/C [22] 44.1% | viability, T/C [23] 49.2% | viability, T/C [24] 16.7% | viability, T/C [25] 37.5% | viability, T/C [26] 36.1% | viability, T/C [27] 24.4% | viability, T/C [28] 29.5% | viability, T/C [29] 26.4% | viability, T/C [30] 12.4% | viability, T/C [31] 28.3% | viability, T/C [32] 24.4% | viability, T/C [33] 21.8% | viability, T/C [34] 18.2% | viability, T/C [35] 18.1% | viability, T/C [36] 15.3% | viability, T/C [37] 29.4% | viability, T/C [38] 23.3% | viability, T/C [39] 13.2% | viability, T/C [40] 15.4% | viability, T/C [41] 10.6% | viability, T/C [42] 13.5%
5.3 µM: IC50 [2]

COC1C=CCC(C)C(C)S(=O)(=O)NC(=O)c2ccc3c(c2)N(CC2CCC21)CC1(CCCc2cc(Cl)ccc21)CO3 (stereo not given)
8.14 µM and 8.09 µM: IC50 (curve of compound)
inactive: viability, T/C (compound 0.0316 µM) 99.1% and 84.9% | viability, T/C (compound 0.1 µM) 77.1% and 86.7% | viability, T/C (compound 0.316 µM) 101% and 100% | viability, T/C (compound 1 µM) 75.3% and 81.2% | viability, T/C (compound 3.16 µM) 94.4% and 83.8% | viability, T/C (compound 10 µM) 41.3% and 42.6%

CC(Nc1ccc2c(c1)OCCn1cc(N3C(=O)OCC3C(F)F)nc1-2)C(N)=O (stereo not given) + CNC(=O)c1ccc(Nc2nc(OC3CCCC3)c3c(-c4ccc5nc(C)oc5c4)c[nH]c3n2)c(OC)c1
active: viability, T/C [28] 10.8% | viability, T/C [29] 10.8% | viability, T/C [30] 4.05% | viability, T/C [33] 9.12% | viability, T/C [34] 8.23% | viability, T/C [35] 5.63% | viability, T/C [36] 4.88% | viability, T/C [39] 10.3% | viability, T/C [40] 6.53% | viability, T/C [41] 4.37% | viability, T/C [42] 4.21%
0.0949 µM: IC50 [2]
< 0.0316 µM: IC50 [4] | IC50 [5] | IC50 [6]
inactive: viability, T/C [7] 55.6% | viability, T/C [8] 51.5% | viability, T/C [9] 39.4% | viability, T/C [10] 35.8% | viability, T/C [11] 39% | viability, T/C [12] 33.7% | viability, T/C [13] 70.7% | viability, T/C [14] 46.2% | viability, T/C [15] 36.2% | viability, T/C [16] 35% | viability, T/C [17] 28% | viability, T/C [18] 20.8% | viability, T/C [19] 64.6% | viability, T/C [20] 37.9% | viability, T/C [21] 16.9% | viability, T/C [22] 22.7% | viability, T/C [23] 21.6% | viability, T/C [24] 14.4% | viability, T/C [25] 34.1% | viability, T/C [26] 19.7% | viability, T/C [27] 12.5% | viability, T/C [31] 31.8% | viability, T/C [32] 14.3% | viability, T/C [37] 20.7% | viability, T/C [38] 10.9%
0.0754 µM: IC50 [1]
0.0594 µM: IC50 [3]
